Data on one compound can be found in patent US20140004499A1, “BIOSURFACE ENGINEERING” (priority 2011, published 2014).

Each structure is given as a SMILES string.

Data set [1] has as its system red blood cells (RBCs). As to the kind of experiment: Localisation of biotin to RBC surface by conjugation with avidin ALEXAFLUOR (fluorescence microscopy). On the set-up: key to fluorescent signal intensity grade: 1 (low); 2 (moderate); 3 (bright); 4 (very bright). The data set is classed as cell-based. Here is the method:
(§1) The use of aqueous solutions of the construct designated Biotin-S3-S4-S2-chol (III) and the construct designated Biotin-S3-S4-S5-DOPE (IV) in the localisation of biotin (F) to cell surfaces was also compared. Solutions of the two constructs were prepared at substantially equimolar concentrations. The use of the solutions was assessed across a concentration range from 0 to 500 μM (0.5 mM). A 0.5 mM solution of the construct designated Biotin-S3-S4-S2-chol (III) was prepared by dissolving 0.4 mg of the construct in 514 μL of PBS. […] A 0.5 mM stock solution of the construct designated Biotin-S3-S4-S5-DOPE (IV) was prepared by dissolving 2 mg of the construct in 1942 μL of phosphate buffered saline (PBS). Each 0.5 mM solution was warmed to 37° C. for 10 minutes, vortexed and sonicated for 30 seconds to ensure complete dissolution of the construct in the aqueous medium. A dilution series was prepared for each construct to provide a total volume of 100 μL at each of the following concentrations: […]. Equal volumes (40 μL) of packed, washed red blood cells (RBCs) and solutions of constructs at different concentrations were mixed in a glass kimble tube. The tubes were incubated at 37° C. for 20 minutes in a water bath with periodic (3 x) agitation. The incubated cells were washed 3× with PBS before being resuspended in a cell preservative (CELPRESOL™) for storage at 4° C. overnight.
(§2) Two equal volumes were taken from each tube and centrifuged (300×g for 2 minutes) to provide two equivalent packed cells volumes for further evaluation. One of each pair of equivalent packed cell volumes was evaluated for localisation of the biofunctional moiety biotin to the surface of the RBCs by conjugation with avidin ALEXAFLUOR™. One of each pair of the equivalent packed cell volumes was evaluated for localisation of the biofunctional moiety biotin to the surface of the RBCs by conjugation to avidinylated beads (DYNABEADS™ M-280).
Conjugation with avidin ALEXAFLUOR™ was evaluated as described in the publication of Oliver et al (2011). An aliquot containing 0.02 mg avidin ALEXAFLUOR™ was mixed with a volume ([…]) of PBS containing BSA to provide a 0.1 mg/mL solution. Equal volumes 20 μL of packed RBCs and the solution of avidin ALEXAFLUOR™ were mixed and incubated at 37° C. for 30 minutes. The cells were then washed 3× with PBS before placing a drop (10 μL) on a glass microscope slide for fluorescent microscopy (WIB filter at 400× magnification). Cells were graded for fluorescence intensity over two micrograph fields of view. Grades determined via the eye piece were correlated with the corresponding photomicrographs (1.9 sec exposure). Grades were assigned according to the following scale: 1 (low), 2 (moderate), 3 (bright) and 4 (very bright). The morphology of the cells was also recorded (“normal” or “poiked”).

Data set [2] concerns red blood cells (RBCs). As to the kind of experiment: Localisation of biotin to RBC surface by attachment of avidinylated beads (DYNABEADS M-280). The data set is classed as cell-based. Here is the method: as §1, with “The tubes were incubated at 37° C. for 20 minutes in a water bath with periodic (3 x) agitation. The incubated cells were washed 3× with PBS before being resuspended in a cell preservative (CELPRESOL™) for storage at 4° C. overnight.” left out
as §2
Conjugation with avidinylated beads (DYNABEADS™ M-280) was performed. […] The attachment of beads to cells was scored at 400× and 800× magnification on a compound microscope. An estimate of the number of beads and the presence of cell clusters was recorded for each group and compared with a negative control.

A short description of data set [3]: Dissolution of construct in PBS. The data set is classed as physicochemical. The settings on record: 0.5 mM: 0.4 mg in 514 μL of PBS. Here is the method: as §1, with “The incubated cells were washed 3× with PBS before being resuspended in a cell preservative (CELPRESOL™) for storage at 4° C. overnight.” left out

`CC(C)CCC[C@@H](C)[C@H]1CC[C@H]2[C@@H]3CC=C4C[C@@H](OC(=O)NCCCCC(=O)NCC(=O)NCC(=O)N(CC(=O)[O-])CC(=O)NCC(=O)NCC(=O)N(CC(=O)[O-])CC(=O)NCCNC(=O)CN(CC(=O)[O-])C(=O)CNC(=O)CNC(=O)CN(CC(=O)[O-])C(=O)CNC(=O)CNC(=O)CCCC[C@@H]5SC[C@@H]6NC(=O)N[C@@H]65)CC[C@]4(C)[C@H]3CC[C@]12C.[Na+].[Na+].[Na+].[Na+]` [Biotin-S3-S4-S2-chol (III)]: in the data set with red blood cells (RBCs) [1] (100 and 500 μM), the “staining at higher concentrations” value is on record as “poor staining”. The “homogeneity of modification of cell surface” value with red blood cells (RBCs) [1] (compared with Biotin-S3-S4-S5-DOPE (IV)) was “more homogenous modification over the entire cell surface and lesser inter-cell variation”. In the data set on red blood cells (RBCs) [1] (constructs at concentrations of 10 and 25 μM, avidin ALEXAFLUOR), the “fluorescent signal intensity grade” value was 2. In the data set on red blood cells (RBCs) [1] (lower concentration ranges (5 to 75 μM)), the “fluorescent signal intensity relative to cells prepared using Biotin-S3-S4-S5-DOPE (IV)” value is “moderately lower”. Further, the “attachment of avidinylated beads, comparison of the two constructs” value in the data set with red blood cells (RBCs) [2] is given as “comparable results”. The “number of beads attached to each RBC and clustering of RBCs into groups, relative to the other construct” value in the data set with red blood cells (RBCs) [2] (25 μM construct) is “slightly greater”. Moreover, the “dissolution in PBS” value in data set [3] was “readily dissolved to provide a clear solution”.
